For one test, the system named is human iNKT cell clones. The test is described as follows: Cytokine ELISA of human iNKT cell clones stimulated with glycolipid-pulsed CD1d-transfected HeLa cells. The class given is cell-based. The method, then:
Capture ELISA assays were used for measurement of cytokine responses of human iNKT cells to αGalCer analogs. One day prior to the experiment, CD1d transfected HeLa cells were plated at 25×10^3 cells/well in 100 µL of medium in flat-bottom 96 well plates. Glycolipids were then added in 100 µL of medium to give final concentrations ranging from 0.05 to 10^4 nM. The APCs were incubated for approximately 18 hours with the glycolipids and then irradiated (10,000 Rad) and washed twice with PBS prior to addition of 25×10^3 iNKT cells well in 300 µL. Supernatants were harvested after 24 hours of co-culture and stored frozen at -20°C. After thawing, aliquots of the supernatants were assayed for specific cytokines by ELISA using capture and biotin-labeled detection antibody pairs specific for GM-CSF, IL-2, IL-4, IL-12p70 and IL-13 (all obtained from BD Biosciences), IFNγ (Thermo-Scientific) or IL-18 (MBL). Specific signals were developed using HRP- conjugated streptavidin (BD Biosciences) and Turbo TMB substrate (Thermo-Scientific). Supernatants were tested pure and/or diluted to give values within a quantitative linear standard curve generated with recombinant cytokines. Curves of dose-dependent cytokine responses and graphs were plotted using the Graphpad Prism Software. EC50 values were calculated using the function log (agonist) response with variable slope, and statistical analyses were carried out using the same software. To calculate concentration-dependent cytokine ratios, IL-4/IFNγ and IL-13/IFNγ ratios were calculated using cytokine values from which background levels (i.e. levels in cultures receiving DMSO vehicle alone) were subtracted. Ratios were calculated by dividing IL-4 or IL-13 concentrations in pg/mL by IFNγ concentration in ng/mL.
A general note: An ELISA detects its analyte on a solid surface through an enzyme-linked reagent.

The next test has as its target Human iNKT TCRs (Homo sapiens, UniProt A0A075B6N4+A0A0B4J240+P15813). The test is described as follows: Equilibrium binding of analog-loaded hCD1d tetramers to iNKT cell clones. An excerpt: For flow cytometric analysis, 6B11 (Vα24Jα18 specific) and mAbs specific for human CD3, CD4, CD8α, CD19, CD40L (CD154), CD56, CD69, GM-CSF & IFNγ were obtained from BD Biosciences. IL-4 and IL-13 specific mAbs were from Biolegend. Vα24 (C15) and Vβ11 (C21) specific mAb were from Immunotech. For antibody blocking in culture assays, non-specific isotype matched control, IL-2, IFNγ, IL-12p70 and CD40L specific mAbs without preservatives were obtained from BD Biosciences and IL-18 specific mAb from Medical & Biological Laboratories (MBL, Nagoya, Japan). Phycoerythrin and allophycocyanin labeled human CD1d tetramers were prepared in our laboratory as previously described. Curves of tetramer equilibrium binding constants and graphs were plotted using the Graphpad Prism Software (Version 5). KD values were calculated using the function non-linear fit (hyperbola, one binding site).
To characterize in more detail the iNKT cell TCR recognition of αGalCer analogs presented by human CD1d, we generated soluble and fluorescent tetrameric hCD1d molecules loaded with each of the glycolipid analogs. […] This was similar to the previously reported failure of mouse CD1d tetramer loaded with lysosulfatide to bind detectably to murine non-invariant and sulfatide specific NKT cells, despite a clear reactivity to this lipid upon presentation by APCs; [40]. […] To quantitate their binding avidities to iNKT cell TCRs, we used titration of analog-loaded hCD1d tetramers to determine equilibrium dissociation constants (KD), which are inversely proportional to avidity (Figure 3A and 3B).
Figure 3 Characterization of human iNKT cell TCR interactions with analog-loaded tetramers. (A) iNKT cell clones were stained with titrated amounts of hCD1d tetramers loaded with the indicated glycolipids (abbreviations as in legend to Figure 1), and the measured MFI values are plotted for selected glycolipids. (B) The equilibrium dissociation constants (KD, inversely proportional to TCR avidity) were determined as the concentrations of tetramers required to yield 50% of maximal binding. Data shown were obtained using the CD4^+ iNKT cell clone HDD3, and similar results (not shown) were obtained with a second CD4^+ clone (HDD11) and a CD4^−8^− double negative iNKT cell clone (HDE3). (C) Analysis of iNKT cell clones labeled with 20 nM of hCD1d tetramers which were loaded with variable excesses of analog to constant hCD1d (25 to 1000 fold molar excess of glycolipid to hCD1d protein). The measured MFI values were normalized as the percent of the maximum staining intensity obtained with each analog loaded tetramer. Data presented were generated with HDD3 (CD4+) iNKT cell clone, and similar results (not shown) were obtained with HDE3 (DN) clone.

For a further test, the system named is human iNKT cells. The following applies: cited from earlier work.

SMILES strings stand for the structures.

Chain of Human iNKT TCRs (P15813 20-301): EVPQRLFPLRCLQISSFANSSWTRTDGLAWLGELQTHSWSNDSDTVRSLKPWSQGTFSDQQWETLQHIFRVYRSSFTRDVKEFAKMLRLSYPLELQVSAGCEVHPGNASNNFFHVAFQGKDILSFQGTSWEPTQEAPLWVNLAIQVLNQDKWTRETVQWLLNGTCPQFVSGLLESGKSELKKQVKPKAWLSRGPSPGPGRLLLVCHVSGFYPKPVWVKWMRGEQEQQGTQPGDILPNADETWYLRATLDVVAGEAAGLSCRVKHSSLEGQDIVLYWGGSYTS
Chain of Human iNKT TCRs (P01848 whole entry, further chain): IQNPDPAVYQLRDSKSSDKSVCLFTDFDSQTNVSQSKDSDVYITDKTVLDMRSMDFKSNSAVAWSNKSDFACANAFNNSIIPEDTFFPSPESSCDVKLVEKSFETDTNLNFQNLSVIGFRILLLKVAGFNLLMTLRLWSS
Chain of Human iNKT TCRs (A0A0B4J240 22-114): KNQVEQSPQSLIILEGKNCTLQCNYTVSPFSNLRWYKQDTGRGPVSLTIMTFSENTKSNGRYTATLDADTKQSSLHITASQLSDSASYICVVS
Chain of Human iNKT TCRs (P61769 21-119, further chain): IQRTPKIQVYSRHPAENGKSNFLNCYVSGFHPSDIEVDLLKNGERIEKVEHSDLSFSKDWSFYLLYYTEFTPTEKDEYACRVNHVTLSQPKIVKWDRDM
Chain of Human iNKT TCRs (A0A075B6N4 22-114): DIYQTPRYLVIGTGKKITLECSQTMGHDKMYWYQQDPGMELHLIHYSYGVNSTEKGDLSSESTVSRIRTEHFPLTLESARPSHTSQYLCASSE

On to `CCCCCCCCCCCCCCCCCCCCCCCCCC(=O)N[C@@H](CC[C@H]1O[C@H](CO)[C@H](O)[C@H](O)[C@H]1O)[C@H](O)[C@H](O)CCCCCCCCCCCCCC` [C-glycoside], for which, in the test on human iNKT cell clones (CD4+ clone HDD3), the “reactivity of HDD3 iNKT cell clone” value is on record as “did not display detectable reactivity”. The “reactivity of a fraction of the iNKT cell clones tested” value in the test on human iNKT cell clones (primarily IL-13 production, limited induction of IFNγ) is reported as “weak, but detectable, reactivity”. Moreover, the “clones with detectable reactivity” value in the test with human iNKT cell clones (six clones tested) was “Two clones out of six clones tested”. The “staining of iNKT cell clones by analog-loaded hCD1d tetramers” value on Human iNKT TCRs is “only a weak staining intensity of a subset of iNKT cell clones tested”. Further, in the test on human iNKT cells, the “stimulation of human iNKT cells in culture” value is given as “only weakly stimulatory”.
A word on the EC50: it is the midpoint of the concentration-response curve. In the case of `CCCCCCCCCCCCCCCCCCCCCCCC(=O)N[C@@H](CO[C@H]1O[C@H](CO)[C@H](O)[C@H](O)[C@H]1O)[C@H](O)[C@H](O)CCCCC` [OCH], the EC50 in the test with human iNKT cell clones (Homo sapiens, iNKT, HDD3 clone, IL-4 levels did not reach a plateau) was over 10 µM. Also, in the test with human iNKT cell clones (all clones tested), the “induction of IL-4” value is reported as “minimal”. Also, the “concentration required to induce detectable IL-13 production or weak IFNγ secretion” value in the test with human iNKT cell clones (all iNKT cell clones tested) is over 10 nM. Moreover, the “iNKT cell clone cytokine response / agonist activity” value with human iNKT cell clones (dose range, IFNγ, IL-4, IL-13, clones HDD3, HDD11, HDE3, HDA7) was “much weaker reactivity”. Also, the “staining of iNKT cell clones by analog-loaded hCD1d tetramers” value on Human iNKT TCRs is recorded as “only a weak staining intensity of a subset of iNKT cell clones tested”. Moreover, the “ability to stimulate human iNKT cells” value with human iNKT cells was “weak or no detectable ability to stimulate human iNKT cells”.

The values above are taken from paper PMC3003687, “α-Galactosylceramide Analogs with Weak Agonist Activity for Human iNKT Cells Define New Candidate Anti-Inflammatory Agents” (PLoS ONE, 2010).
